Laboratory results taken from the NIST ThermoML archive (doi:10.1021/je200886j).
Numbers after ± are expanded uncertainties.

Key:
[1] = wn = mass fraction of the nth substance listed; conditions: 101 kPa, Liquid; for mass density: Pycnometric method
[2] = 101 kPa, Liquid; for mass density: Pycnometric method

CN1CCCC1=O [N-methylpyrrolidone] + CCCCn1cc[n+](C)c1.F[B-](F)(F)F
mass density ([1]; 298.15 K, w2 = 0): 1028.3 ± 0.6 kg/m3
mass density ([1]; 298.15 K, w2 = 0.5): 1115.6 ± 0.6 kg/m3
mass density ([1]; 298.15 K, w2 = 0.6999): 1148.8 ± 0.7 kg/m3
mass density ([1]; 298.15 K, w2 = 0.8981): 1182 ± 0.7 kg/m3
viscosity ([1]; 298.15 K, w2 = 0): 1.683 ± 0.026 mPa·s
viscosity ([1]; 298.15 K, w2 = 0.5): 8.196 ± 0.22 mPa·s
viscosity ([1]; 298.15 K, w2 = 0.6999): 19.33 ± 0.47 mPa·s
viscosity ([1]; 298.15 K, w2 = 0.8981): 49.46 ± 1.1 mPa·s
mass density ([1]; 303.15 K, w2 = 0): 1024.5 ± 0.6 kg/m3
mass density ([1]; 303.15 K, w2 = 0.5): 1111.8 ± 0.6 kg/m3
mass density ([1]; 303.15 K, w2 = 0.6999): 1145.6 ± 0.7 kg/m3
mass density ([1]; 303.15 K, w2 = 0.8981): 1179.4 ± 0.7 kg/m3
viscosity ([1]; 303.15 K, w2 = 0): 1.558 ± 0.025 mPa·s
viscosity ([1]; 303.15 K, w2 = 0.5): 7.291 ± 0.11 mPa·s
viscosity ([1]; 303.15 K, w2 = 0.6999): 16.03 ± 0.25 mPa·s
viscosity ([1]; 303.15 K, w2 = 0.8981): 39.75 ± 0.63 mPa·s
mass density ([1]; 308.15 K, w2 = 0): 1020.1 ± 0.6 kg/m3
mass density ([1]; 308.15 K, w2 = 0.5): 1107.9 ± 0.7 kg/m3
mass density ([1]; 308.15 K, w2 = 0.6999): 1142 ± 0.7 kg/m3
mass density ([1]; 308.15 K, w2 = 0.8981): 1176.2 ± 0.7 kg/m3
viscosity ([1]; 308.15 K, w2 = 0): 1.47 ± 0.023 mPa·s
viscosity ([1]; 308.15 K, w2 = 0.5): 6.382 ± 0.099 mPa·s
viscosity ([1]; 308.15 K, w2 = 0.6999): 13.51 ± 0.21 mPa·s
viscosity ([1]; 308.15 K, w2 = 0.8981): 32.43 ± 0.51 mPa·s
mass density ([1]; 313.1 K, w2 = 0): 1015.8 ± 0.6 kg/m3
mass density ([1]; 313.1 K, w2 = 0.5): 1104.1 ± 0.7 kg/m3
mass density ([1]; 313.1 K, w2 = 0.6999): 1138.3 ± 0.7 kg/m3
mass density ([1]; 313.1 K, w2 = 0.8981): 1173.1 ± 0.7 kg/m3
viscosity ([1]; 313.1 K, w2 = 0): 1.337 ± 0.021 mPa·s
viscosity ([1]; 313.1 K, w2 = 0.5): 5.63 ± 0.087 mPa·s
viscosity ([1]; 313.1 K, w2 = 0.6999): 11.63 ± 0.18 mPa·s
viscosity ([1]; 313.1 K, w2 = 0.8981): 26.93 ± 0.41 mPa·s
mass density ([1]; 318.15 K, w2 = 0): 1011.7 ± 0.6 kg/m3
mass density ([1]; 318.15 K, w2 = 0.5): 1100.3 ± 0.7 kg/m3
mass density ([1]; 318.15 K, w2 = 0.6999): 1135 ± 0.7 kg/m3
mass density ([1]; 318.15 K, w2 = 0.8981): 1170.1 ± 0.7 kg/m3
viscosity ([1]; 318.15 K, w2 = 0): 1.248 ± 0.02 mPa·s
viscosity ([1]; 318.15 K, w2 = 0.5): 5.045 ± 0.085 mPa·s
viscosity ([1]; 318.15 K, w2 = 0.6999): 10.07 ± 0.15 mPa·s
viscosity ([1]; 318.15 K, w2 = 0.8981): 22.47 ± 0.31 mPa·s

CN1CCCC1=O [N-methylpyrrolidone]
viscosity ([2]; 298.15 K): 1.683 ± 0.026 mPa·s
mass density ([2]; 298.15 K): 1028.3 ± 0.6 kg/m3
viscosity ([2]; 303.15 K): 1.558 ± 0.025 mPa·s
mass density ([2]; 303.15 K): 1024.5 ± 0.6 kg/m3
viscosity ([2]; 308.15 K): 1.47 ± 0.023 mPa·s
mass density ([2]; 308.15 K): 1020.1 ± 0.6 kg/m3
viscosity ([2]; 313.1 K): 1.337 ± 0.021 mPa·s
mass density ([2]; 313.1 K): 1015.8 ± 0.6 kg/m3
viscosity ([2]; 318.15 K): 1.248 ± 0.02 mPa·s
mass density ([2]; 318.15 K): 1011.7 ± 0.6 kg/m3

CCCCn1cc[n+](C)c1.F[B-](F)(F)F [1-butyl-3-methylimidazolium tetrafluoroborate] + CN1CCCC1=O
mass density ([1]; 298.15 K, w1 = 1): 1200.6 ± 0.7 kg/m3
viscosity ([1]; 298.15 K, w1 = 1): 93.81 ± 2.3 mPa·s
mass density ([1]; 303.15 K, w1 = 1): 1197.7 ± 0.7 kg/m3
viscosity ([1]; 303.15 K, w1 = 1): 71.76 ± 1.4 mPa·s
mass density ([1]; 308.15 K, w1 = 1): 1194.8 ± 0.7 kg/m3
viscosity ([1]; 308.15 K, w1 = 1): 56.41 ± 0.85 mPa·s
mass density ([1]; 313.1 K, w1 = 1): 1191.5 ± 0.7 kg/m3
viscosity ([1]; 313.1 K, w1 = 1): 45.6 ± 0.72 mPa·s
mass density ([1]; 318.15 K, w1 = 1): 1188.4 ± 0.7 kg/m3
viscosity ([1]; 318.15 K, w1 = 1): 37.32 ± 0.6 mPa·s

CCCCn1cc[n+](C)c1.F[B-](F)(F)F [1-butyl-3-methylimidazolium tetrafluoroborate]
viscosity ([2]; 298.15 K): 93.81 ± 2.3 mPa·s
mass density ([2]; 298.15 K): 1200.6 ± 0.7 kg/m3
viscosity ([2]; 303.15 K): 71.76 ± 1.4 mPa·s
mass density ([2]; 303.15 K): 1197.7 ± 0.7 kg/m3
viscosity ([2]; 308.15 K): 56.41 ± 0.85 mPa·s
mass density ([2]; 308.15 K): 1194.8 ± 0.7 kg/m3
viscosity ([2]; 313.1 K): 45.6 ± 0.72 mPa·s
mass density ([2]; 313.1 K): 1191.5 ± 0.7 kg/m3
viscosity ([2]; 318.15 K): 37.32 ± 0.6 mPa·s
mass density ([2]; 318.15 K): 1188.4 ± 0.7 kg/m3
